Laboratory results reported in patent US20060148763A1, “Compounds and methods for regulating triglyceride levels” (priority 2005, published 2006).
Several values for one entry are separate records, joined by “and”; a condition that tells them apart may be missing. Equal entries are not always repeated.

Key:
[1] = tested on: serum triglyceride levels; assay: 14-week open-label forced dose-escalation study of P5P in hypertensive diabetic patients: triglyceride level; type: in vivo, human; settings: for Triglycerides, Percentage Difference: average Visit 12 vs Visit 1
Procedure: Overview—The study was a 14-week, open-label, forced, dose-escalation study of the efficacy and safety of P5P administered once daily over a dose range of 250 mg to 750 mg, for the treatment of mild to moderate hypertension and hyperlipidemia, in patients with coexisting diabetes mellitus.
Patient Definition—Patients meeting all of the inclusion criteria and none of the exclusion criteria were eligible for enrollment. The primary inclusion criteria were hypertension and diabetes. […] Other than having diabetes and hypertension, patients must have been in good health for their age. A history and physical examination must have been within age-related normal limits, or if abnormal, considered clinically insignificant in the opinion of the investigator. Laboratory tests (CBC with differential, prothrombin and partial thrombo-plastin times, platelet count, and urinalysis and blood chemistry panel), must have been normal, or if abnormal, considered clinically insignificant.
Exclusion criteria included the presence or history (past 12 months) of accelerated or malignant hypertension, as evidenced by hemorrhage and/or exudate, and/or papilloedema on funduscopic examination. Patients having a history of angioedema of the face, lips, tongue, glottis or larynx when treated with ACE inhibitors were excluded. Patients having a diastolic BP>114 mm Hg, and/or systolic BP>200 mm Hg at screening were excluded. Patients with similar readings at the end of the placebo lead-in period were dropped from further participation in the study. During the placebo lead-in period patients who had signs of bradycardia (<45 bpm) or a resting heart rate of >100 bpm were not advanced to the next stage of the study, but rather dropped from further participation.
Exclusion criteria included the presence or history (past 6 months) of myocardial infarction or cerebrovascular accident and clinically significant cardiac pathology such as congestive heart failure, cardio-genic shock, non-controlled arrhythmias, acute myocarditis or pericarditus, significant valvular or congestive heart disease and unstable angina pectoris; presence or evidence of atrioventricular block (second/third degree), or sick sinus syndrome, or any other conduction defect or abnormality including the presence/history of atrial fibrillation or flutter, associated with pre-excitation syndrome; clinically significant gastrointestinal disease, renal insufficiency (serum creatinine […]), hepatic disease, or electrolyte imbalance (serum potassium <3.5 or >5.3 mmol/L, serum sodium <136->145 mmol/L); presence of bronchial asthma or chronic obstructive pulmonary disease; or the presence of any clinically significant concomitant disease that in the opinion of the investigator could interfere with the patient's participation in the study, or confound the outcome variables. Patients having any clinically significant concomitant disease that could interfere with the patient's participation in the study, or confound the outcome variables were excluded. Patients with a history of alcohol abuse or illicit drug use in the 12 months prior to beginning this protocol were excluded. Patients with a terminal illness were excluded. Patients with an arm circumference >41 cm were excluded. Pregnant females, women who were breast-feeding or women of child-bearing potential must have used adequate contraception. Patients who have had therapy with an investigational compound within 30 days prior to entry into the study were excluded. The use of the following medications was cause for exclusion, each had to have been safely discontinued prior to the placebo lead-in phase of the study, and must been withheld until the protocol had been completed: all diuretics and antihypertensive drugs (including beta-blockers, calcium-channel blockers, vasodilators, ACE inhibitors), MAO inhibitors, all anti-arrhythmic drugs, digitalis, major tranquilizers, antidepressants, cimetidine, corticosteroids, and antineoplastics. […]

serum LDL = assay: Phase II cross-over study of P5P alone and with lisinopril in hypertensive type 2 diabetic patients: LDL; type: in vivo, human; settings: for LDL change, 16 wk vs. baseline (b): LDL non-stratified data; for reduction in serum LDL levels: patients having elevated LDL levels (>2.59 mmol/L)
Procedure: Objective—A phase II clinical study was conducted to determine the effects of pyridoxal-5′-phosphate in combination with lisinopril on blood pressure and metabolic function in hypertensive patients with type 2 diabetes.
Summary of Study Design—The phase II study was a randomized, parallel group, cross-over, double-blinded to study medication, placebo-controlled comparison of P5P BID at total daily doses of 100, 300, or 1000 mg alone and in combination with 20 mg lisinopril given once daily (QD). In order to protect against antihypertensive and metabolic carry-over effects of lisinopril, all patients were randomized in 2 different treatment sequences. Patients randomized in the first treatment sequence receive an 8-week treatment with lisinopril 20 mg and P5P (or placebo) and then an 8-week treatment with P5P alone (or placebo). Patients randomized in the second treatment sequence receive an 8-week treatment with P5P alone and then an 8-week treatment with lisinopril 20 mg and P5P (or placebo). In each treatment sequence, all patients were randomized to P5P at the different prespecified dosages.
Mean trough sitting and standing BP were measured at each visit. Twenty-four hour ambulatory BP monitoring (ABPM) were performed at Visit 2 prior to randomization (end of washout period) and after week 8 (Visit 5) and week 16 (Visit 8) weeks of active therapy. Laboratory tests were performed at screening (Visit 1), prior to randomization (Visit 2), at week 2 (Visit 3a), week 8 (Visit 5), week 10 (Visit 6a), and at week 16 (Visit 8).
Treatment Plan—Two to Four-week Washout (Baseline) Period. Patients were instructed on the proper procedure for discontinuing their current antihypertensive medications (discontinuation or tapering) according to the manufacturer's label specifications. If a patient's current antihypertensive treatment needed to be tapered earlier, the Investigator complied with the corresponding timelines before randomization. With the exception of any tapering off of prior therapy, if any, no other anti-hypertensive medication was given to the patient during the washout period. Patients continued any existing diabetic treatment with sulfonylureas (tolbutamide, tolazamide, acetohexamide, chlorpropamide and second generation glyburide, glipizide, glimepiride), D-Phenylalanine derivatives, metformin, thiazolidinediones, acarbose, miglitol, and/or insulin throughout the study. Patients received placebo to be taken twice daily during the washout period. Standard diabetic medication was maintained throughout study. The duration of the washout period was two to four weeks, at the discretion of the Investigator taking into consideration whether the patient's blood pressure had stabilized following removal of any prior antihypertensive medication.
Active (Study) Medication Period: After the washout period, eligible patients were randomized to one of the 2 following sequences of treatment for 16 weeks.
Week 0 to 8: Treatment period (P5P alone (or placebo) or P5P (or placebo) and Lisinopril)
Week 8 to 16: Treatment period (P5P alone (or placebo) or P5P (or placebo) and Lisinopril)
Study Groups—The patients were randomized into one of […] groups:
Sequence 1 P5P 300 mg and then P5P 300 mg+Lisinopril 20 mg
Sequence 2 P5P 300 mg+Lisinopril 20 mg and then P5P 300 mg alone
All medications were taken at the same time each day during washout and treatment periods:
Other Efficacy Endpoints—Analytical efficacy measurements, including markers of metabolic function (insulinemia, fasting serum glucose, glycated hemoglobin, LDL, HDL, non-HDL and triglycerides), endothelial function (ICAM-1, VCAM-1, E-selectin and albuminuria), kidney function (creatinine, glomular filtration rate), CRP and homocysteine, were conducted on blood samples taken on Visits 2, 5 and 8. Samples were sent to a central laboratory for analysis.

[2] = P5P 300 mg, patients with LDL >2.59 mmol/L

SMILES: Cc1ncc(COP(=O)(O)O)c(C=O)c1O [P5P, pyridoxal-5′-phosphate]
- Triglycerides, Percentage Difference ([1]; Table 2): −22.1%
- Triglycerides, Visit 1, Average ([1]; Table 2, average of 11 patients, screening, before treatment): 246.1 mg/dL
- Triglycerides, Visit 12, Average ([1]; Table 2, average of 11 patients, week 14): 191.5 mg/dL
- Triglycerides, Percentage Difference ([1]; Table 3, elevated triglycerides (>150 mg/dL)): −25.7%
- Triglycerides, Visit 1, Average ([1]; Table 3, elevated triglycerides (>150 mg/dL), average of 7 patients, screening): 326.9 mg/dL
- Triglycerides, Visit 12, Average ([1]; Table 3, elevated triglycerides (>150 mg/dL), average of 7 patients, week 14): 242.9 mg/dL
- Triglycerides, Visit 1 ([1]; Table 3, patients with elevated triglycerides (>150 mg/dL), individual patients, screening, before treatment): 150 mg/dL and 601 mg/dL and 188 mg/dL and 180 mg/dL and 530 mg/dL and 442 mg/dL and 197 mg/dL
- Triglycerides, Visit 12 ([1]; Table 3, patients with elevated triglycerides (>150 mg/dL), individual patients, week 14): 166 mg/dL and 268 mg/dL and 160 mg/dL and 305 mg/dL and 286 mg/dL and 302 mg/dL and 213 mg/dL
- reduced triglyceride levels by (average) ([1]; hypertensive diabetic patients, end of 14 week study): approximately 22.1%
- reduced triglyceride levels by (average) ([1]; patients having elevated triglyceride levels (>150 mg/dL) prior to the study): approximately 25.7%
- LDL change, 16 wk vs. baseline (b) (serum LDL; P5P 300 mg): −0.15 mmol/L (p = 0.194)b
- reduction in serum LDL levels (serum LDL; P5P 300 mg): about 0.41 mmol/L
- LDL change (serum LDL; [2]): −0.41 mmol/L (p = 0.04)
- LDL reduction (serum LDL; [2]): (12% reduction)
- LDL change, 16 wk vs. baseline (b) (serum LDL; P5P 1000 mg): −0.15 mmol/L (p = 0.197)b
- reduction in serum LDL levels (serum LDL; P5P 1000 mg): about 0.53 mmol/L
- LDL change (serum LDL; P5P 1000 mg, patients with LDL >2.59 mmol/L): −0.53 mmol/L (p = 0.075)
- average reduction in serum LDL levels (placebo corrected) (serum LDL; patients taking 300 mg or 1000 mg of P5P): 0.27 mmol/L
